The source of these data is patent US4868117A, “BBM-1675, a new antitumor antibiotic complex” (Bristol-Myers Company, priority 1985, dated 1989).

Values joined by “and” are separate entries in the source; they are usually repeats but may differ in a detail not shown here. Equal entries are not always repeated. Where two headings read alike, the source gives them in different places.

The LD50 is the dose at which mortality reaches 50%. Low readings indicate greater toxicity, high ones lower toxicity. By T/C is commonly meant the result in the treated group divided by that in the control group, in per cent.

Data set [1] deals with P-388 leukemia. The experiment in a line: Intravenously implanted P-388 leukemia, i.v. treatment. The following applies: days 1, 4 and 7, lines in dose order as in E66 (Adriamycin starts with 30).
Procedure: (§1) Lymphocytic leukemia P-388, lymphoid leukemia L-1210, melanotic melanoma B16 and Lewis lung carcinoma were implanted intraperitoneally into male BDF1 mice at an inoculum size of 10^6, 10^5, 5×10^5 and 10^6 cells per mouse, respectively. Graded doses of test compounds were administered to the mice intraperitoneally 24 hours after the tumor inoculation.
(§2) Death or survival of the treated and non-treated mice was recorded daily, and the median survival time (MST) was calculated for each of the test (T) and control (C) groups. […] Second experiments were carried out by intravenous administration of BBM-1675 components against P-388 and L-1210 leukemias, which were inoculated intravenously at 5×10^5 and 10^4 cells per mouse, respectively.
In data set [2] the test system is L-1210 leukemia. The experiment in a line: Intravenously implanted L-1210 leukemia, i.v. treatment. As to conditions: days 1, 4 and 7, lines in dose order as in E71 (Adriamycin starts with 16).
Procedure: as §1, §2
Data set [3] has as its system male ddY mice. The experiment in a line: Toxicity (LD50) in male ddY mice. As to conditions: multiple dose (qd 1→9), i.p.
Data set [4] has as its system L-1210 leukemia. As to conditions: i.p., qd 1→9.
Procedure: as §1
(§3) Death or survival of the treated and non-treated mice was recorded daily, and the median survival time (MST) was calculated for each of the test (T) and control (C) groups.
In data set [5] the test system is Lewis lung carcinoma.
Procedure: as §1, §3
Data set [6] concerns P-388 leukemia. The following applies: for Therapeutic index, LD50/MED: MED = minimum effective dose.
Procedure: as §1, §2
Data set [7] has as its system B16 melanoma.
Procedure: as §1, §3
Setting [8] is: i.p., qd 1→11, lines in dose order as in E53.
Where [9] appears, read: i.p., qd 1→9, lines in dose order as in E48.

For the compound `COc1cccc2c1C(=O)c1c(O)c3c(c(O)c1C2=O)C[C@@](O)(C(=O)CO)C[C@@H]3O[C@H]1C[C@H](N)[C@H](O)[C@H](C)O1` [Adriamycin, adriamycin], in data set [1], the “Survivors on day 5” value was 0/6 and 6/6; the “Survivors on day 45” value is 0/6. Also, in data set [2], the “Survivors on day 5” value is 2/6 and 6/6; the “Survivors on day 45” value was 0/6.
Compound `CO[C@@H]1[C@H](O)C[C@@H](O[C@@H]2C[C@H](Oc3cc4cc5c(c(O)c4c(O)c3C)C(=O)[C@@H](O[C@H]3C[C@@H](O[C@H]4C[C@@H](O[C@H]6C[C@](C)(O)[C@@H](OC(C)=O)[C@H](C)O6)[C@H](O)[C@@H](C)O4)[C@H](O)[C@@H](C)O3)[C@H]([C@H](OC)C(=O)[C@@H](O)[C@@H](C)O)C5)O[C@H](C)[C@@H]2OC(C)=O)O[C@@H]1C` [Chromomycin A3, chromomycin A3] gave a median lethal dose (LD50) in data set [3] of 0.23 mg/kg/day. The MST was 8.5 days and 11.0 days and 10.0 days in data set [4] (lines in dose order as in E43); 17.0 in data set [5] (mouse, in vivo, ip); 23.0 days and 21.0 days in data set [7] (setting [9]); 18.0 in data set [7] (mouse, in vivo, ip). In addition, the “Survivors on day 5” value is 6/6 in data set [4] (lines in dose order as in E43); 6/6 and 5/5 in data set [5] (setting [8]); 6/6 in data set [7] (setting [9]). The “Survivors on day 45” value was 0/6 in data set [4] (lines in dose order as in E43); 1/6 and 0/6 in data set [5] (setting [8]); 0/5 in data set [5] (mouse, in vivo, ip); 0/5 and 1/5 in data set [6] (mouse, in vivo, ip); 0/6 in data set [7] (setting [9]). The compound further came in with a T/C in data set [4] (≥[…] significant, mg/kg/day in line order: A1 0.003,0.001,0.0003,0.0001, A2 0.03,0.01,0.003,0.001,0.0003, chromomycin A3 0.3,0.1,0.03,0.01,0.003) of 89%. Further, the “Therapeutic index, LD50/MED” value is on record as 23 in data set [5] (LL, MED = minimum effective dose); 8 in data set [6] (P-388, qd 1→9); 8 in data set [6] (P-388, single); 23 in data set [7] (B16, MED = minimum effective dose).
